Data published in US10174331B2, “Methods and compositions for nuclease-mediated targeted integration of transgenes” (Sangamo BioSciences, Inc., priority 2012, dated 2019).

Experiments:
[1] = tested on: scutella of wheat cv. Bobwhite MPB26RH and cv. Clearfield Janz; assay: Basal tolerance to IMAZAMOX at callus induction stage; format: cell-based, Triticum aestivum
Method: A series of experiments were performed to determine optimal selection conditions for regenerating AHAS edited wheat plants. These experiments were based on testing the basal tolerance to IMAZAMOX™ of the donor wheat line cv. Bobwhite MPB26RH(S653/S653 genotype) at the callus induction, plant regeneration and rooting stages of an established wheat transformation system. Similar experiments were performed to determine the basal tolerance and resistance of cv. Clearfield Janz genotypes carrying the different doses of the S653N mutation; i.e., plants with N653/N653 and S653/S653 genotypes.
The basal tolerance of the donor wheat line cv. Bobwhite MPB26RH and basal resistance of cv. Clearfield Janz (N653/N653) genotype to IMAZAMOX® at the callus induction stage was determined as follows: Scutella of immature zygotic embryos from each wheat line were isolated as described previously and placed in 10 cm PETRI™ dishes containing CIM medium supplemented with 0, 50, 100, 200, 300, 400 and 500 nM IMAZAMOX® respectively. Twenty scutella were placed in each PETRI™ dish. A total of 60 scutella from each of the donor wheat line cv. Bobwhite MPB26RH and cv. […] After incubation at 24° C. in the dark for 4 weeks, the amount of somatic embryogenic callus formation (SEC) at each IMAZAMOX® concentration was recorded. […]

[2] = tested on: wheat cv. Bobwhite MPB26RH and cv. Clearfield Janz; assay: Basal tolerance to IMAZAMOX at plant regeneration stage; format: in vivo, Triticum aestivum
Method: The basal tolerance of the donor wheat line cv. Bobwhite MPB26RH to IMAZAMOX® at the plant regeneration stage was determined as follows: Scutella of immature zygotic embryos from the donor wheat line were isolated as described previously and placed in 10 cm PETRI™ dishes containing CIM medium. Somatic embryogenic callus was allowed to form by incubating at 24° C. in the dark for 4 weeks. The SEC was transferred to 10 cm PETRI™ dishes containing DRM medium supplemented with 0, 100, 200, 300, 400, 500 and 1000 nM IMAZAMOX® respectively. Twenty CIM were placed in each PETRI™ dish. A total of 60 CIM were tested for basal tolerance response at each IMAZAMOX® concentration. After incubation for 2 weeks at 24° C. under a 16/8 (light/dark) hour photoperiod in a growth room, the regeneration response was recorded.
The basal tolerance of the cv. Clearfield Janz (S653/S653) genotype and basal resistance of the cv. Clearfield Janz (N653/N653) genotype to IMAZAMOX® at the plant regeneration stage was determined using a modified approach, as cv. […] Seed for each cv. Clearfield Janz genotype was germinated using the aseptic approach described above for producing wheat mesophyll protoplasts. […] After incubation for 3 weeks at 24° C. under a 16/8 (light/dark) hour photoperiod in a growth room, the growth response was recorded. […]

[3] = tested on: scutella of wheat cv. Bobwhite MPB26RH; assay: Basal tolerance to sulfometuron methyl at callus induction stage; format: cell-based, Triticum aestivum; conditions: 100 nM, 4 weeks
Method: A series of experiments were performed to determine optimal selection conditions for regenerating wheat plants expressing the AHAS(P197S) mutation conferring tolerance to sulfonylurea class herbicides. These experiments were based on testing the basal tolerance of the wild-type donor wheat line cv. Bobwhite MPB26RH (P197/P197 genotype, which confers susceptibility to sulfonylureas) at the callus induction, plant regeneration and rooting stages of an established wheat transformation system. Similar experiments were performed to determine the basal tolerance of transgenic cv. Bobwhite MPB26RH events that had randomly integrated T-DNA expressing the AHAS(P197) mutation, which confers tolerance to sulfonylurea selection agents.
The basal tolerance of the wild-type donor wheat line to sulfometuron methyl at the callus induction stage was determined as follows: Scutella of immature zygotic embryos were isolated, as previously described, and placed in 10 cm PETRI™ dishes containing CIM medium supplemented with 0, 100, 500, 1000, 1500 and 2000 nM sulfometuron methyl, respectively. Twenty scutella were placed in each PETRI™ dish. A total of 60 scutella were tested at each sulfometuron methyl concentration. After incubation at 24° C. in the dark for 4 weeks, the amount of somatic embryogenic callus formation (SEC) at each sulfometuron methyl concentration was recorded. […]

[4] = tested on: wheat cv. Bobwhite MPB26RH; assay: Basal tolerance to sulfometuron methyl at plant regeneration stage; format: in vivo, Triticum aestivum; conditions: wild-type cv. Bobwhite MPB26RH; 2000 nM; 2 weeks
Method: The basal tolerance of the wild-type donor wheat line to sulfometuron methyl at the plant regeneration stage was determined as follows: Scutella of immature zygotic embryos from the donor wheat line were isolated and placed in 10 cm PETRI™ dishes containing CIM medium. Somatic embryogenic callus was allowed to form by incubating at 24° C. in the dark for 4 weeks. The SEC was transferred to 10 cm PETRI™ dishes containing DRM medium supplemented with 0, 100, 500, 1000, 1500, 2000, 2500 and 3000 nM sulfometuron methyl, respectively. Twenty CIM were placed in each PETRI™ dish. A total of 60 CIM were tested for basal tolerance response at each sulfometuron methyl concentration. After incubation for 2 weeks at 24° C. under a 16/8 (light/dark) hour photoperiod in a growth room, the regeneration response was recorded.

[5] = tested on: wheat cv. Bobwhite MPB26RH, wild-type and AHAS(P197S) transgenic events; assay: Basal tolerance to sulfometuron methyl at plant rooting stage; format: in vivo, Triticum aestivum; conditions: wild-type donor wheat line; concentrations higher than 400 nM; 3 weeks
Method: The basal tolerance of the wild-type donor wheat line to sulfometuron methyl at the plant rooting stage was determined as follows: Scutella of immature zygotic embryos were isolated and placed in 10 cm PETRI™ dishes containing CIM medium. Somatic embryogenic callus was allowed to form by incubating at 24° C. in the dark for 4 weeks. The SEC was transferred to 10 cm PETRI™ dishes containing DRM medium and incubated for 2 weeks at 24° C. under a 16/8 (light/dark) hour photoperiod to allow plant regeneration to take place. Regenerated plants were transferred to 10 cm PETRI™ dishes containing RM medium supplemented with 0, 100, 200, 250, 300, 400, 500, 1000 and 2000 nM sulfometuron methyl, respectively. Ten regenerated plants were placed in each PETRI™ dish. […] After incubation for 3 weeks at 24° C. under a 16/8 (light/dark) hour photoperiod in a growth room, the root formation response was recorded.
The basal tolerance of transgenic wheat events with randomly integrated, low-copy (≤3) T-DNA expressing the AHAS(P197S) mutation to sulfometuron methyl at the plant rooting stage was determined as follows: Four independent transgenic events were randomly selected and multiplied in vitro by sub-culturing on multiplication medium. […] After incubation for 2 weeks at 24° C. under a 16/8 (light/dark) hour photoperiod in a growth room, the root formation response was recorded.

Structure (SMILES) | reduction of SEC formation compared to untreated samples ([1]; cv. Bobwhite MPB26RH, 100 nM, 4 weeks) | callus formation relative to the untreated control ([1]; cv. Clearfield Janz (N653/N653), any concentration tested (50-500 nM)) | reduction of plant regeneration compared to untreated samples ([2]; cv. Bobwhite MPB26RH, 200 nM, 2 weeks) | concentration that had to be exceeded before plant growth was strongly suppressed ([2]; cv. Clearfield Janz (N653/N653), 3 weeks) | reduction of SEC formation compared to untreated samples [3] | reduction of plant regeneration compared to untreated samples [4] | root formation compared to untreated samples [5]
COCc1cnc(C2=NC(C)(C(C)C)C(=O)N2)c(C(=O)O)c1 (stereo not shown) [IMAZAMOX] | about 70% | unaffected | about 80% | exceeded 2,000 nM | – | – | –
COC(=O)c1ccccc1S(=O)(=O)NC(=O)Nc1nc(C)cc(C)n1 [sulfometuron methyl] | – | – | – | – | about 70% | about 80% | severely inhibited
